Like-named read-outs stand apart in the source and are kept apart here. No end group written: not given here.
Experiments:
[1] = type: cell-based
[2] = test system: human bronchial epithelial cells (HBE); assay: LDH release assay (Cytotoxicity Detection Kit); type: cell-based; details: 100 μg/ml, 24 hours; no peptide control 1.0 ± 0.05
Protocol: (§1) The potential toxicity of the peptides was measured in two ways. First, the Cytotoxicity Detection Kit (Roche) (Lactate dehydrogenase-LDH) Assay was used. It is a colorimetric assay for the quantification of cell death and cell lysis, based on the measurement of LDH activity released from the cytosol of damaged cells into the supernatant. LDH is a stable cytoplasmic enzyme present in all cells and it is released into the cell culture supernatant upon damage of the plasma membrane. An increase in the amount of dead or plasma membrane-damaged cells results in an increase of the LDH enzyme activity in the culture supernatant as measured with an ELISA plate reader, OD490 nm (the amount of color formed in the assay is proportional to the number of lysed cells). In this assay, human bronchial epithelial cells (I6HBEo14, HBE) cells were incubated with 100 μg of peptide for 24 hours, the supernatant removed and tested for LDH. The other assay used to measure toxicity of the cationic peptides was the WST-1 assay (Roche). This assay is a colorimetric assay for the quantification of cell proliferation and cell viability, based on the cleavage of the tetrazolium salt WST-1 by mitochondrial dehydrogenases in viable cells (a non-radioactive alternative to the [^3H]-thymidine incorporation assay). In this assay, HBE cells were incubated with 100 μg of peptide for 24 hours, and then 10 μl/well Cell Proliferation Reagent WST-1 was added. The cells are incubated with the reagent and the plate is then measured with an ELISA plate reader, OD490 nm.

[3] = test system: HBE cells; assay: WST-1 assay (cell viability); type: cell-based, human
Protocol: as §1

[4] = test system: A549 epithelial cells; assay: Human Operon arrays (PRHU04-S1) of A549 cells treated with peptide alone (Tables 31-37, 53); details: peptide 50 μg/ml, 4 h, A549 cells; for X58467 cytochrome P450, expression Ratio ID#:ctrl: Table 36
[5] = Citobacter rhodensis, overnight, 96-well plate
[6] = Enterohaemorrhagic E. coli, overnight, 96-well plate
[7] = Escherichia coli, overnight, 96-well plate
[8] = Pseudomonas aeruginosa, overnight, 96-well plate
[9] = Salmonella enteritidis ssp. typhimurium, overnight, 96-well plate

Question: With “KWKSFLRTFKSPVRTVFHTALKPISS [SEQ ID NO: 53]” as the substance, how does the “MIC, C. rhod.” value [1, 5] read?
Answer: Its value is 16 mg/L.

Question: What about the “MIC, EHEC” value [1, 6] of the same substance?
Answer: Its value is 8 mg/L.

Question: And the “MIC, E. coli” value [1, 7]?
Answer: The value was 4 mg/L.

Question: What about the “MIC, P. aerug.” value [1, 8] of the same substance?
Answer: Its value is 8 mg/L.

Question: What about the “MIC, S. typhim.” value [1, 9] of the same substance?
Answer: The value was 8 mg/L.

Question: What about the “LDH Release (OD490 nm)” value [2] of the same substance?
Answer: Its value is 103 ± 0.06 OD490 nm.

Question: And the “OD490 nm (WST-1 cell viability)” value [3]?
Answer: Its value is 1.51 ± 0.37 OD490 nm.

Question: For RAPYWPWAWARPRK [SEQ ID NO: 21], which “MIC, C. rhod.” value ([1]; 24 h) is on record?
Answer: The value was 32 mg/L.

Question: And the “MIC, E. coli” value ([1]; 24 h)?
Answer: Its value is 64 mg/L.

Question: And the “MIC, EHEC” value ([1]; 24 h)?
Answer: Its value is 32 mg/L.

Question: What about the “MIC, P. aerug.” value ([1]; 24 h) of the same substance?
Answer: Its value is 96 mg/L.

Question: And the “MIC, S. aureus” value ([1]; 24 h)?
Answer: Its value is 64 mg/L.

Question: What about the “MIC, S. typhim.” value ([1]; 24 h) of the same substance?
Answer: Its value is 64 mg/L.

Question: What about the “LDH Release (OD490 nm)” value [2] of the same substance?
Answer: Its value is 1.06 ± 0.04 OD490 nm.

Question: And the “OD490 nm (WST-1 cell viability)” value [3]?
Answer: The value was 1.28 ± 0.07 OD490 nm.

Question: With RREAIRRVAMRGRDMKRMRR [SEQ ID NO: 31] as the substance, how does the “MIC, EHEC” value ([1]; 24 h) read?
Answer: Its value is 64 mg/L.

Question: And the “MIC, P. aerug.” value ([1]; 24 h)?
Answer: Its value is 128 mg/L.

Question: And the “LDH Release (OD490 nm)” value [2]?
Answer: Its value is 0.98 ± 0.03 OD490 nm.

Question: And the “OD490 nm (WST-1 cell viability)” value [3]?
Answer: The value was 1.84 ± 0.06 OD490 nm.

Question: Which “ID#:ctrl intensity ratio, M14565 cytochrome P450” value [4] does the source give for DLPAKRGSAPGST [ID 12] here?
Answer: The value was 10.6.

Question: With SELPGLKHPCVPGS [SEQ ID NO: 13] as the substance, how does the “LDH Release (OD490 nm)” value [2] read?
Answer: Its value is 0.93 ± 0.06 OD490 nm.

Question: And the “OD490 nm (WST-1 cell viability)” value [3]?
Answer: The value was 1.23 ± 0.11 OD490 nm.

Question: Which results are given for Gentamicin?
Answer: MIC, C. rhod. [1, 5]: 0.25 mg/L; MIC, EHEC [1, 6]: 0.5 mg/L; MIC, E. coli [1, 7]: 0.25 mg/L; MIC, P. aerug. [1, 8]: 0.25 mg/L; MIC, S. typhim. [1, 9]: 0.25 mg/L; MIC, S. aureus ([1]; Staphylococcus aureus, overnight, 96-well plate): 0.25 mg/L

Question: With KNKAFAKMLMKALKKVTTAAKPLTG [ID 44] as the substance, how does the “X58467 cytochrome P450, expression Ratio ID#:ctrl” value [4] read?
Answer: The value was 34.4.

Question: With RAPYWPWAWARPRK [ID 21] as the substance, how does the “ID#:ctrl intensity ratio, X65962 cytochrome P-450” value [4] read?
Answer: Its value is 5.7.

Question: For TTLGPVKRDSIPGE [SEQ ID NO: 14], which “LDH Release (OD490 nm)” value [2] is on record?
Answer: The value was 0.99 ± 0.05 OD490 nm.

Question: And the “OD490 nm (WST-1 cell viability)” value [3]?
Answer: The value was 1.25 ± 0.02 OD490 nm.

Question: With “RLARIVVIRVAR-NH2 [SEQ ID NO: 3, reference compound]” as the substance, how does the “LDH Release (OD490 nm)” value [2] read?
Answer: Its value is 1.05 ± 0.04 OD490 nm.

Question: And the “OD490 nm (WST-1 cell viability)” value [3]?
Answer: Its value is 1.35 ± 0.12 OD490 nm.

Question: Which results are given for “KNKAFAKMLMKALKKVTTAAKPLTG [SEQ ID NO: 44]”?
Answer: MIC, C. rhod. ([1]; 24 h): 64 mg/L; MIC, E. coli ([1]; 24 h): 8 mg/L; MIC, EHEC ([1]; 24 h): 64 mg/L; MIC, P. aerug. ([1]; 24 h): 128 mg/L; MIC, S. typhim. ([1]; 24 h): 128 mg/L; LDH Release (OD490 nm) [2]: 0.97 ± 0.03 OD490 nm; OD490 nm (WST-1 cell viability) [3]: 1.49 ± 0.39 OD490 nm

Question: For RRRWKWAWPRRK [SEQ ID NO: 24], which “MIC, C. rhod.” value ([1]; 24 h) is on record?
Answer: The value was 16 mg/L.

Question: And the “MIC, E. coli” value ([1]; 24 h)?
Answer: Its value is 16 mg/L.

Question: What about the “MIC, EHEC” value ([1]; 24 h) of the same substance?
Answer: The value was 4 mg/L.

Question: What about the “MIC, P. aerug.” value ([1]; 24 h) of the same substance?
Answer: The value was 4 mg/L.

Question: What about the “MIC, S. aureus” value ([1]; 24 h) of the same substance?
Answer: The value was 16 mg/L.

Question: What about the “MIC, S. typhim.” value ([1]; 24 h) of the same substance?
Answer: Its value is 16 mg/L.

Question: What about the “LDH Release (OD490 nm)” value [2] of the same substance?
Answer: The value was 1.05 ± 0.01 OD490 nm.

Question: What about the “OD490 nm (WST-1 cell viability)” value [3] of the same substance?
Answer: The value was 1.27 ± 0.16 OD490 nm.

Question: For RRAWWKAWWARRK [ID 20], which “ID#:ctrl intensity ratio, X65962 cytochrome P-450” value [4] is on record?
Answer: The value was 25.3.

Question: Which “ID#:ctrl intensity ratio, M14565 cytochrome P450” value [4] does the source give for SLPIKHDRLPATS [ID 15] here?
Answer: Its value is 3.6.

Question: For NLPDLKKPRVPATS [ID 17], which “ID#:ctrl intensity ratio, M14565 cytochrome P450” value [4] is on record?
Answer: Its value is 6.3.

Question: With RKMVKVDVRGIMIRKDRR [SEQ ID NO: 29] as the substance, how does the “MIC, C. rhod.” value ([1]; 24 h) read?
Answer: The value was 32 mg/L.

Question: And the “MIC, E. coli” value ([1]; 24 h)?
Answer: The value was 2 mg/L.

Question: And the “MIC, EHEC” value ([1]; 24 h)?
Answer: The value was 4 mg/L.

Question: And the “MIC, S. typhim.” value ([1]; 24 h)?
Answer: The value was 16 mg/L.

Question: And the “LDH Release (OD490 nm)” value [2]?
Answer: Its value is 0.99 ± 0.02 OD490 nm.

Question: And the “OD490 nm (WST-1 cell viability)” value [3]?
Answer: The value was 1.75 ± 0.09 OD490 nm.

Question: Which results are given for KSRIVPAIPVSLL [SEQ ID NO: 7]?
Answer: LDH Release (OD490 nm) [2]: 1.01 ± 0.04 OD490 nm; OD490 nm (WST-1 cell viability) [3]: 1.78 ± 0.10 OD490 nm

Question: With NLPDLKKPRVPATS [SEQ ID NO: 17] as the substance, how does the “LDH Release (OD490 nm)” value [2] read?
Answer: Its value is 0.94 ± 0.04 OD490 nm.

Question: And the “OD490 nm (WST-1 cell viability)” value [3]?
Answer: The value was 1.60 ± 0.46 OD490 nm.

Question: Which “X58467 cytochrome P450, expression Ratio ID#:ctrl” value [4] does the source give for KCKLFKKMLMLALKKVLTTGLPALKLTK [ID 40] here?
Answer: Its value is 15.4.

— patent US20070134261A1, “Effectors of innate immunity” (priority 2001, published 2007)
